Target: T1, hT1R2/hT1R3 (Homo sapiens, UniProt Q7RTX0+Q8TE23)
T1 construct: expressed in transfected cells
T1 sequence (Q8TE23 20-839): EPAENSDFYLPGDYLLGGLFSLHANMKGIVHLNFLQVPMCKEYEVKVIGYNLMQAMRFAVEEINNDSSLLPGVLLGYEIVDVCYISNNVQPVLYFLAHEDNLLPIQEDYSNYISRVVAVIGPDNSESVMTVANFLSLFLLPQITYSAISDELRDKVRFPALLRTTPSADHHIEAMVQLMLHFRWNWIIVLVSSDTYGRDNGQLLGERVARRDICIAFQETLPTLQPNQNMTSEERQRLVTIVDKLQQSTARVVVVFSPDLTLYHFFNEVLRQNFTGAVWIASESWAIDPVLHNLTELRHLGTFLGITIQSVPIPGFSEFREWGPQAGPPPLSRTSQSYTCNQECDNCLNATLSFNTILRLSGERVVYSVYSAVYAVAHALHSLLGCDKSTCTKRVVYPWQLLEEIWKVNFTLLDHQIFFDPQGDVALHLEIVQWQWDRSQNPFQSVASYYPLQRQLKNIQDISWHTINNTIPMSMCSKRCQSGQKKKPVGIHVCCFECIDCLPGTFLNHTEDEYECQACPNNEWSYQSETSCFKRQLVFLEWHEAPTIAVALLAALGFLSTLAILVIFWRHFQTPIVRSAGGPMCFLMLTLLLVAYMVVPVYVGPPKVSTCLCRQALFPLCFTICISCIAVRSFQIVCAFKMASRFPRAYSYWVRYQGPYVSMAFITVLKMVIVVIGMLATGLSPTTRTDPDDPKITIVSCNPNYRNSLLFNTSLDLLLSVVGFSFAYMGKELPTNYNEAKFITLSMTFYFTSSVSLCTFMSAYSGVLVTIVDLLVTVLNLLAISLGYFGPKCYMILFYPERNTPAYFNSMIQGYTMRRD
T1 sequence (Q7RTX0 21-852): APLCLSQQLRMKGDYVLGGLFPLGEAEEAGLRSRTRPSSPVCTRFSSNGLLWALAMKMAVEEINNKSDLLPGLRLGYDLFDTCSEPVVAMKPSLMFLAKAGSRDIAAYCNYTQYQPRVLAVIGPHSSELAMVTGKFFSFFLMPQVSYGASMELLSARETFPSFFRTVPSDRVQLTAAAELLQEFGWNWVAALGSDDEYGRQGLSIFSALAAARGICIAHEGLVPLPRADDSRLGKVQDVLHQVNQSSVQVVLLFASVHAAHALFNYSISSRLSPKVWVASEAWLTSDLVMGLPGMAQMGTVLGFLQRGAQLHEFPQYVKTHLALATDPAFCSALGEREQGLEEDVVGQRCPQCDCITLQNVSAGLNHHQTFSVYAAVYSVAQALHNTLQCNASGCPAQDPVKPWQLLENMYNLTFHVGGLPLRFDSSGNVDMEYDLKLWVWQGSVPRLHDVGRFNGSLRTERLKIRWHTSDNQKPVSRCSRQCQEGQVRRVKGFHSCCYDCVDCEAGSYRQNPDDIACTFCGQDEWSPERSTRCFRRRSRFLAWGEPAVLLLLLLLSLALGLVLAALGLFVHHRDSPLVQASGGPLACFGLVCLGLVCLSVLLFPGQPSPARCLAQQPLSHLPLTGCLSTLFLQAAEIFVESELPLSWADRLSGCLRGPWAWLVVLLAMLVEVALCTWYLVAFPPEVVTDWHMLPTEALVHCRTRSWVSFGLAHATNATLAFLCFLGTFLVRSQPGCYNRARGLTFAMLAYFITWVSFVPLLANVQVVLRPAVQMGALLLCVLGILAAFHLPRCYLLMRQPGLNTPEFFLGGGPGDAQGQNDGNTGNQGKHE
Experiment: Effect of anions, cations and osmotic pressure on cellular responses, cells in 10 mM Cl- buffer, hT1R2/hT1R3
Assay type: cell-based
Conditions: for cellular response to the salt alone: without agonist, cells in 10 mM Cl- buffer
Description: Cells were seeded in 96-well plates coated with ε-poly-L-lysine at approximately 70,000 cells per well. […] Fluorescence changes were monitored at 2 s intervals, as described above. […] Three independent experiments were conducted for each receptor, and representative results are shown as the mean ± SEM (n = 3 replicates). Statistical tests were conducted using KyPlot version 6.0 (KyensLab Inc., Tokyo, Japan). Statistical significance was set at p < 0.05.

Row | Compound | response intensity to sucralose on coapplication of the salt at higher concentrations (coapplied with 150 µM sucralose, above 60 mM final [Cl-]o or equivalent osmotic pressure) | response intensity to sucralose on coapplication of the salt (coapplied with 150 µM sucralose, up to 60 mM [Cl-]o, compared to response at 10 mM [Cl-]o) | cellular response to the salt alone
1 | [Cl-].[Na+] [NaCl] | decreased | no significant difference | neither NaCl nor Na-gluconate alone elicited cellular responses
2 | O=C([O-])[C@H](O)[C@@H](O)[C@H](O)[C@H](O)CO.[Na+] [Na-gluconate, sodium gluconate] | – | – | neither NaCl nor Na-gluconate alone elicited cellular responses

From publication PMC10539361, “Allosteric modulation of the fish taste receptor type 1 (T1R) family by the extracellular chloride ion” (Scientific Reports, 2023)
